Where two headings read alike, the source gives them in different places. Marks after values point to notes of the source that are not given here.
What was measured:
CB1 receptor = CB1 receptor (Homo sapiens, UniProt P21554); details: cited from earlier work
PTZ-induced seizures [1] = experiment: PTZ model of generalised seizures (80 mg/kg PTZ); type: in vivo, Wistar rats; details: for Median severity: vehicle 4.25; for % no seizure: vehicle 12.5; for mortality rate: vehicle 44%, not significant
Experimental: Male Wistar rats (P24-29; 75-110 g) were used to assess the effects of the phytocannabinoid CBDV in the PTZ model of generalised seizures. Animals were habituated to the test environment, cages, injection protocol and handling prior to experimentation. Animals were housed in a room at 21° C. on a 12 hour light: dark cycle (lights on 0900) in 50% humidity, with free access to food and water.
Five 6 L Perspex tanks with lids were placed on a single bench with dividers between them. Closed-circuit television (CCTV) cameras were mounted onto the dividers to observe rat behaviour. Sony Topica CCD cameras (Bluecherry, USA) were linked via BNC cables to a low-noise PC via Brooktree digital capture cards (Bluecherry, USA). Zoneminder (http://www.zoneminder.com) software was used to monitor rats, start and end recordings and manage video files. In-house Linux scripts were used to encode video files into a suitable format for further offline analysis using The Observer (Noldus Technologies).
A range of doses of PTZ (50-100 mg/kg body weight) were used to determine the best dose for induction of seizures (see below). As a result, a dose of 80 mg/kg injected intra-peritoneally (IP; stock solution 50 mg/ml in 0.9% saline) were used to screen the CBDV.
On the day of testing, pure CBDV was administered via intra-peritoneal (i.p.) injection at doses of 50, 100 and 200 mg/kg alongside animals that were injected with a matched volume of the cannabinoid vehicle (2:1:17 ethanol:Cremophor: 0.9% w/v NaCl solution), which served as the negative control group. Animals were then observed for 1 hour, after which time they received an IP injection of 80 mg/kg PTZ. Negative vehicle controls were performed in parallel with cannabinoid-dosed subjects. After receiving a dose of PTZ, animals were observed and videoed to determine the severity of seizure and latency to several seizure behaviour types (see in vivo analysis, below). Animals were filmed for half an hour after last sign of seizure, and then returned to their cage.
Animals were observed during experimental procedures, but all analysis was performed offline on recorded video files using The Observer behavioural analysis software (Noldus, Netherlands). A seizure severity scoring system was used to determine the levels of seizure experienced by subjects (Pohl & Mares, 1987). All signs of seizure were detailed for all animals.
The latency (in seconds) from injection of PTZ to first myoclonic jerk (FMJ; score of 1), and to the animal attaining “forelimb clonus with tonic component and body twist” (score of 3.5) were recorded. FMJ is an indicator of the onset of seizure activity, whilst >90% of animals developed scores of 3.5, and so is a good marker of the development of more severe seizures. Data are presented as the mean±S.E.M. within an experimental group.
This is given as the median value for each experimental group based on the scoring scale below.
The percentage of animals within an experimental group that died as a result of PTZ-induced seizures. Note that the majority of animals that developed tonic-clonic seizures (scores of 4 and 5) died as a result, and that a score of 6 (death) automatically denotes that the animal also experienced tonic-clonic seizures.
This is given as the mean±S.E.M. for each experimental group.
For measures of latency and severity, one way analysis of variance (ANOVA) was performed on the four groups together (vehicle and 50, 100 and 200 mg/kg CBDV) to detect overall effects of CBDV (p≤0.05 considered significant).
Significant ANOVA results were followed by post hoc tests to test differences between vehicle and drug groups (Tukey's test, p≤0.05 considered significant).
Methodology as described in Example 2.
General methodology is as described in Example 2.
Three doses of THCV BDS were assessed against a concentration of PTZ known to induce moderate seizures in rats (70 mg/kg; see pilot, above). […]

PTZ-induced seizures [2] = experiment: CBDV with standard anti-epileptic drugs in the PTZ model of generalised seizures; type: in vivo, Wistar rats; details: valproate (varying doses) co-administered with CBDV 200 mg/kg
Experimental: As described in Example 2 above. Varying doses of the SAED's ethosuximide and valproate were tested in combination to isolated CBDV at a dose of 200 mg/kg.

MES-induced seizure = experiment: Maximal electroshock seizure (MES) model of epilepsy; type: in vivo, Mouse/ICR
Experimental: The vehicle used in this study was 2:1:17 (ethanol:Cremophor:0.9% ^w/v, NaCl). The test compounds used were cannabidiol (CBD) and cannabidivarin (CBDV). These were made to a solution at the highest concentration; these were then dissolved in ethanol before combination with Cremophor and 0.9% NaCl in the proportion described above. The CBD or CBDV were administered intraperitoneally at a volume of 10 ml/kg body weight. The SAED valproic acid (VBA) was dissolved in saline.
Animal Species/Strain: Mouse/ICR, Microbiological grade: SPF, Supplier: SLC Japan, Inc. […] Temperature: 23±2° C., Humidity: 60±10%, Light conditions: 7 AM to 7 PM for the light period, 7 PM to 7 AM for the dark period. Chow and water: Free access to CRF-1 (Oriental Yeast Co, Ltd) and tap water.
One day before each experiment, mice were weighed and randomized into several groups in each test. On the morning of the experiment day, body weight was measured in order to calculate the administration volume of each animal. Vehicle, CBD, CBDV or valproic acid sodium salt was interperitoneally administered 30 minutes before electric stimuli. Maximal electroshock seizures (MES) in mice was induced by a stimulator (UGO BASILE ECT UNIT 7801, Italia) using a current of 30 mA delivered with a pulse frequency of 100 Hz for 200 msec through earlap electrodes.
All statistical analyses were performed using SAS Software for Windows, Release 9.1 (SAS Institute Japan). The difference of the number (hindlimb extension or deaths) in each group was assessed using two-tailed Fisher's exact test.

[3] = tested on: pilocarpine-induced seizures; experiment: CBDV with standard anti-epileptic drugs in the pilocarpine model of epilepsy; type: in vivo; details: CBDV 200 mg/kg with valproate at various doses
Text: These two drugs are representative of two classes of anti-convulsants which have different mechanisms of action.

[4] = cited from earlier work
seizure frequency [5] = details: 900-1200 mg of cannabidiol a day for 10 months; single patient; cited from earlier work
[6] = rats; WO 2007/138322; cited from earlier work
seizure frequency [7] = details: 200-300 mg of cannabidiol per day in addition to standard antiepileptic drugs; 12 patients; cited from earlier work
CB2 receptor = CB2 receptor (Homo sapiens, UniProt P34972); details: WO 2007/138322; cited from earlier work
grand mal seizures = details: 200-300 mg of cannabidiol plus regular medication; Cunha et al (1980); cited from earlier work
seizures = details: THC administered to 5 institutionalized children not responding to phenobarbital and phenytoin; cited from earlier work
[8] = rats at doses greater than 200 mg/kg

Chain of CB1 receptor (P21554 whole entry): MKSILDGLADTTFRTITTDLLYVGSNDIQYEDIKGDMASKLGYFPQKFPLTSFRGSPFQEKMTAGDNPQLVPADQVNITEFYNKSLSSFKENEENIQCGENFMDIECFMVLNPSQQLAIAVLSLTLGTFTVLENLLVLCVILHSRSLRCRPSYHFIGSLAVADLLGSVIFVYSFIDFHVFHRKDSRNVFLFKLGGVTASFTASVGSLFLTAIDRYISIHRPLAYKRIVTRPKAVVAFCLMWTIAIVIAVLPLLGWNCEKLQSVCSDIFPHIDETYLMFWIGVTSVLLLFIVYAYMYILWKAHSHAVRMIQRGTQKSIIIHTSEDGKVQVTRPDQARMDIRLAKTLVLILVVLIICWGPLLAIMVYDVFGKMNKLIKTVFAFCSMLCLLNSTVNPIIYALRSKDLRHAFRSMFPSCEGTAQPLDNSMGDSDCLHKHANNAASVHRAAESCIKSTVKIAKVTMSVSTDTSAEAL
Chain of CB2 receptor (P34972 whole entry): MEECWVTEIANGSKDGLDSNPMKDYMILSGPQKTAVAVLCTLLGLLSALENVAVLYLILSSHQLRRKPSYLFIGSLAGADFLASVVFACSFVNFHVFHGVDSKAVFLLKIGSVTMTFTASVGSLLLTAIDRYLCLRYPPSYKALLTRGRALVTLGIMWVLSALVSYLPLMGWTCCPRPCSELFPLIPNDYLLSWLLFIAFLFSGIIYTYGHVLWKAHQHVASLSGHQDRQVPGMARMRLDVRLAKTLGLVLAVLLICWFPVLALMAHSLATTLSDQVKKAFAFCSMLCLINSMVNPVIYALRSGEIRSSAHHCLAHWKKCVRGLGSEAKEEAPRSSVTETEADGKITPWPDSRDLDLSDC

## CCCc1cc(O)c2c(c1)OC(C)(C)[C@@H]1CCC(C)=C[C@@H]21 [THCV, tetrahydrocannabivarin]
CB1 receptor
  activity at the CB1 receptor: antagonist
PTZ-induced seizures [1]; 0.025 mg/kg THCV, 80 mg/kg PTZ
  Median severity: 3.5
  % no seizure: 5.9%
PTZ-induced seizures [1]; 0.25 mg/kg THCV, 80 mg/kg PTZ
  Median severity: 3.5
  % no seizure: 33.3%
PTZ-induced seizures [1]; 2.5 mg/kg THCV, 80 mg/kg PTZ
  Median severity: 3.5
  % no seizure: 18.8%
PTZ-induced seizures [1]; high (2.5 mg/kg) pure THCV, 80 mg/kg PTZ
  mortality rate: 38%
PTZ-induced seizures [1]; highest dose of THCV (2.5 mg/kg), 80 mg/kg PTZ, p=0.013
  latency to score of [5] vs vehicle: increased latencies, reaching a significant level
PTZ-induced seizures [1]; highest dose of THCV (2.5 mg/kg), 80 mg/kg PTZ, p=0.017
  latency to score of [3] vs vehicle: increased latencies, reaching a significant level
PTZ-induced seizures [1]; highest dose of THCV (2.5 mg/kg), 80 mg/kg PTZ, p=0.02
  latency to first manifestation of seizure-like behaviour vs vehicle: delay of onset was significant
PTZ-induced seizures [1]; low (0.025 mg/kg) pure THCV, 80 mg/kg PTZ
  mortality rate: 41%
PTZ-induced seizures [1]; medium (0.25 mg/kg) pure THCV, 80 mg/kg PTZ
  mortality rate: 33%
PTZ-induced seizures [1]; medium dose of THCV (0.25 mg/kg), 80 mg/kg PTZ, p=0.03
  duration of PTZ-induced seizures in animals that survived vs vehicle: significantly shorter

## CCCC(CCC)C(=O)O [Valproic acid, valproic acid, reference compound]
PTZ-induced seizures [2]
  mortality (independent effect when co-administered): significant decreases
  onset latency (independent effect when co-administered): significant decreases
  seizure severity (independent effect when co-administered): significant decreases
MES-induced seizure; 200 mg/kg i.p., Table 10.2, 10 mice per group, vehicle 9/10
  Incidence of Tonic convulsion: 5/10
MES-induced seizure; 350 mg/kg i.p., Table 10.1, 5 mice per group, vehicle 5/5
  Incidence of Tonic convulsion: 0/5**
MES-induced seizure; 350 mg/kg i.p., Table 10.2, 10 mice per group, vehicle 9/10
  Incidence of Tonic convulsion: 1/10**
MES-induced seizure; 350 mg/kg valproic acid, statistically significant
  hindlimb extension vs vehicle group: blocked
[3]
  mortality (independent effect): only CBDV and not valproate independently caused a significant decrease
  seizure severity (independent effect): independent and positive effects
[4]; [8]
  motor and other side effects: notable motor and other side effects (including sedation)

## C=C(C)[C@@H]1CCC(C)=C[C@H]1c1c(O)cc(CCCCC)cc1O [CBD, cannabidiol]
CB1 receptor
  activity at the CB1 receptor: inverse agonists
Seizure frequency [5]
  seizure frequency: markedly reduced
[6]
  bodyweight: reduced
Seizure frequency [7]
  improvement in seizure frequency: no significant improvement
PTZ-induced seizures [1]; 100 mg/kg CBD IP 60 minutes before 80 mg/kg PTZ, vehicle 46.7%, p<0.001
  animals that died: 6.7%
PTZ-induced seizures [1]; 100 mg/kg CBD IP, 80 mg/kg PTZ, vehicle 53.3%, p<0.001
  animals that experienced the most severe seizures (score of 5): 6.7%
PTZ-induced seizures [1]; CBD 1, 10 and 100 mg/kg IP, 80 mg/kg PTZ
  latency of seizure development: no significant increases
MES-induced seizure; 3 mg/kg i.p., Table 10.1, 5 mice per group, vehicle 5/5
  Incidence of Tonic convulsion: 3/5
MES-induced seizure; 10 mg/kg i.p., Table 10.1, 5 mice per group, vehicle 5/5
  Incidence of Tonic convulsion: 4/5
MES-induced seizure; 30 mg/kg i.p., Table 10.1, 5 mice per group, vehicle 5/5
  Incidence of Tonic convulsion: 3/5
MES-induced seizure; 100 mg/kg i.p., Table 10.1, 5 mice per group, vehicle 5/5
  Incidence of Tonic convulsion: 4/5
MES-induced seizure; CBD 3-100 mg·kg IP
  inhibition of the expression of hindlimb extension with statistical significance: not able to inhibit
CB2 receptor
  activity at the CB2 receptor: inverse agonists
Grand mal seizures
  patients who remained unchanged: 1
  patients who showed complete improvement: 3
  patients who showed minor improvement: 2
  patients who showed partial improvement: 2
  unwanted effect: mild sedation

## CCC1(c2ccccc2)C(=O)NC(=O)NC1=O [phenobarbital]
[4]; rat models of epilepsy at doses greater than 250 mg/kg
  motor and other side effects: notable motor and other side effects (including sedation)

## CCC1(C)CC(=O)NC1=O (stereo not drawn) [ethosuximide]
[4]; [8]
  motor and other side effects: notable motor and other side effects (including sedation)

## CCCCCc1cc(O)c2c(c1)OC(C)(C)[C@@H]1CCC(C)=C[C@@H]21 [THC, tetrahydrocannabinol]
seizures
  seizure outcome in 5 children: One became entirely free of seizures, one became almost completely free of seizures, and the other three did no worse than before

From US10799467B2, “Use of the phytocannabinoid cannabidivarin (CBDV) in the treatment of epilepsy” (GW Pharma Limited, priority 2010, dated 2020)
